Earlier results on 1 molecule are cited in patent US20060139426A1, “Ink, ink set, processing solution, recording method, recording medium, ink tank, and recording device” (Fuji Xerox Co., Ltd., priority 2004, published 2006).

Broadly, the pKa is the pH at which an ionisable group is half protonated.

For the molecule `O=C(O)c1ccco1` [2-Furancarboxylic acid], the pKa is given as 2.4.
